ChEMBL document CHEMBL6103615, “Thymidylate Kinase-Targeted Antimicrobial Peptides via Phage Display: A Novel Strategy against Gram-Negative Bacteria” (J Med Chem, 2025)
Calls of active or inactive are those of the source.

Key:
Bacteria [1] = assay: Antibacterial activity against bacterial cells at pH 12; format: functional
[2] = Hydrophobicity of compound; format: physicochemical
[3] = Relative hydrophobic moment of compound; format: physicochemical
Lactococcus lactis = assay: Antibacterial activity against Lactococcus lactis NZ9000 incubated for 12 to 18 hrs by microbroth dilution method; format: functional; conditions: time 12-18 hrs
[4] = test system: Lacticaseibacillus rhamnosus; assay: Antibacterial activity against Lactobacillus rhamnosus 7469 incubated for 12 to 18 hrs by microbroth dilution method; format: functional; conditions: time 12-18 hrs
[5] = test system: Lactiplantibacillus plantarum; assay: Antibacterial activity against Lactobacillus plantarum 8014 incubated for 12 to 18 hrs by microbroth dilution method; format: functional; conditions: time 12-18 hrs
Bacteria [6] = assay: Antibacterial activity against bacterial cells at pH 4 to 10; format: functional
[7] = test system: Staphylococcus epidermidis; assay: Antibacterial activity against Staphylococcus epidermidis 12228 incubated for 12 to 18 hrs by microbroth dilution method; format: functional; conditions: time 12-18 hrs
Staphylococcus aureus [8] = assay: Antibacterial activity against methicillin-resistant Staphylococcus aureus 43300 incubated for 12 to 18 hrs by microbroth dilution method; format: functional; conditions: time 12-18 hrs
Staphylococcus aureus [9] = assay: Antibacterial activity against Staphylococcus aureus 25923 incubated for 12 to 18 hrs by microbroth dilution method; format: functional; conditions: time 12-18 hrs
Staphylococcus aureus [10] = assay: Antibacterial activity against Staphylococcus aureus 29213 incubated for 12 to 18 hrs by microbroth dilution method; format: functional; conditions: time 12-18 hrs
Enterococcus faecalis = assay: Antibacterial activity against Enterococcus faecalis 29212 incubated for 12 to 18 hrs by microbroth dilution method; format: functional; conditions: time 12-18 hrs
Pseudomonas aeruginosa [11] = assay: Antibacterial activity against Pseudomonas aeruginosa 27853 incubated for 12 to 18 hrs by microbroth dilution method; format: functional; conditions: time 12-18 hrs
Pseudomonas aeruginosa [12] = assay: Antibacterial activity against Pseudomonas aeruginosa PAO1 incubated for 12 to 18 hrs by microbroth dilution method; format: functional; conditions: time 12-18 hrs
Salmonella typhimurium = assay: Antibacterial activity against Salmonella typhimurium 7731 incubated for 12 to 18 hrs by microbroth dilution method; format: functional, Salmonella enterica subsp. enterica serovar Typhimurium; conditions: Salmonella enterica, time 12-18 hrs
[13] = Antibacterial activity against Salmonella choleraesuis 21493 incubated for 12 to 18 hrs by microbroth dilution method; format: functional, Salmonella enterica subsp. enterica serovar Choleraesuis; conditions: Salmonella enterica, time 12-18 hrs
Escherichia coli [14] = assay: Antibacterial activity against Escherichia coli 1515 incubated for 12 to 18 hrs by microbroth dilution method; format: functional; conditions: time 12-18 hrs
Escherichia coli [15] = assay: Antibacterial activity against Escherichia coli 078 incubated for 12 to 18 hrs by microbroth dilution method; format: functional; conditions: time 12-18 hrs
Escherichia coli [16] = assay: Antibacterial activity against Escherichia coli K99 incubated for 12 to 18 hrs by microbroth dilution method; format: functional; conditions: time 12-18 hrs
Escherichia coli [17] = assay: Antibacterial activity against Escherichia coli K88 incubated for 12 to 18 hrs by microbroth dilution method; format: functional; conditions: time 12-18 hrs
[18] = Hemolytic activity against human red blood cells at 2 to 128 uM relative to control; format: toxicity, cell-based, Erythrocyte; conditions: dose 2-128 µM, read-out: Activity
[19] = Cytotoxicity against mouse RAW264.7 cells assessed as cell viability at 128 uM incubated for 4 hrs by MTT assay relative to control; format: toxicity, cell-based; conditions: read-out: Activity
[20] = Cytotoxicity against porcine IPEC-J2 cells assessed as cell viability at 128 uM incubated for 4 hrs by MTT assay relative to control; format: toxicity, cell-based, Sus scrofa; conditions: pig, read-out: Activity
[21] = Binding affinity to 6xHis-tagged recombinant Escherichia coli TMK assessed as dissociation constant by BLI assay
Bacteria [22] = assay: Antibacterial activity against bacterial cells at 1 to 128 uM in presence of NaCl; format: functional, organism-based; conditions: dose 1-128 µM
Bacteria [23] = assay: Antibacterial activity against bacterial cells at 1 to 128 uM in presence of CaCl; format: functional, organism-based; conditions: dose 1-128 µM
Bacteria [24] = assay: Antibacterial activity against bacterial cells at pH 2 to 12; format: functional
Bacteria [25] = assay: Antibacterial activity against bacterial cells at pH 2; format: functional
Bacteria [26] = assay: Antibacterial activity against bacterial cells at 100 degreeC at 1 to 64 uM incubated for 60 mins; format: functional, organism-based; conditions: dose 1-64 µM
Bacteria [27] = assay: Antibacterial activity against bacterial cells at 1 to 64 uM incubated for 4 hrs in presence of 50 percent serum; format: functional, organism-based; conditions: dose 1-64 µM
Escherichia coli [28] = assay: Induction of resistance development in Escherichia coli K88 at sub-MIC measured after 20 passages; format: functional, organism-based
[29] = Effect on secondary structure of compound in PBS assessed as formation of alpha-helical conformation at 100 uM by CD analysis; format: physicochemical; conditions: buffer
Escherichia coli [30] = assay: Disruption of membrane integrity in Escherichia coli K88 at 2 uM by PI staining based flow cytometry (reference value: 0.1 %); format: functional
Escherichia coli [31] = assay: Induction of morphological changes in Escherichia coli K88 assessed as membrane folding at 2 uM incubated for 1 hr by SEM analysis; format: functional, organism-based
Escherichia coli [32] = assay: Induction of morphological changes in Escherichia coli K88 assessed as membrane contraction at 2 uM incubated for 1 hr by SEM analysis; format: functional, organism-based
Escherichia coli [33] = assay: Induction of morphological changes in Escherichia coli K88 assessed as membrane permeability at edges at 2 uM incubated for 1 hr by TEM analysis; format: functional, organism-based
Escherichia coli [34] = assay: Induction of morphological changes in Escherichia coli K88 assessed as cytoplasmic leakage at 2 uM incubated for 1 hr by TEM analysis; format: functional, organism-based
Escherichia coli [35] = assay: Induction of ROS generation in Escherichia coli K88 assessed as increase in fluorescence intensity incubated for 1 hr by DCFH-DA dye based analysis; format: functional, organism-based
Escherichia coli [36] = assay: Inhibition of DNA migration in Escherichia coli K88 at 64 uM incubated for 40 mins by agarose gel electrophoresis.; format: functional, organism-based

H-WKKIWKPGIKKWIK-OH
< 1 pM: Kd [21]
> 80%: viability at 4 h, 128 µM [19] | viability at 4 h, 128 µM [20]
32 µM: MIC (Bacteria [1]) | MIC (Pseudomonas aeruginosa [11]) | MIC (Salmonella typhimurium) | MIC (Escherichia coli [14]) | MIC (Escherichia coli [15]) | MIC (Bacteria [25])
Active: Activity [29]
< 5%: hemolysis at up to 128 µM [18]
16 µM: MIC (Bacteria [6]) | MIC (Pseudomonas aeruginosa [12]) | MIC [13] | MIC (Escherichia coli [16]) | MIC (Escherichia coli [17]) | MIC (Bacteria [24])
inactive: Activity (Bacteria [22]) | Activity (Bacteria [23]) | Activity (Escherichia coli [28]) | Activity (Escherichia coli [31]) | Activity (Escherichia coli [32]) | Activity (Escherichia coli [33]) | Activity (Escherichia coli [34])
0.727: Activity [3]
active: Activity (Bacteria [26]) | Activity (Bacteria [27]) | Activity (Escherichia coli [35]) Dose-dependent-effect | inhibition (Escherichia coli [36])
16.3%: Activity (Escherichia coli [30])
128 µM: MIC (Lactococcus lactis) | MIC [4] | MIC [5] | MIC [7] | MIC (Staphylococcus aureus [8]) | MIC (Staphylococcus aureus [9]) | MIC (Staphylococcus aureus [10]) | MIC (Enterococcus faecalis)
0.495: Activity [2]
